# Reference: patent US20040146519A1, “Inducing cellular immune responses to carcinoembryonic antigen using peptide and nucleic acid compositions” (priority 2002, published 2004)
# Read-outs that look alike come from different tables or passages of the source. Where no end group is shown, it is not given here.
# Assays:
# HLA-A*6802 = HLA-A*6802 (Homo sapiens, UniProt P04439, A269V/D140Y/D185E/E176V/E277Q/E87N/F33Y/G231S/I121R/I166T/I218V/L180W/L300P/L318F/N151K/P208A/P217A/Q86R/R138H/R169H/S129P/T345S/V36M); test: HLA class I binding assay, purified HLA-A*6802; conditions: Table XXII, binding affinity
# HLA-A*0202 = HLA-A*0202 (Homo sapiens, UniProt P04439, D140Y/D185E/D98H/E176V/E277Q/G131W/G231S/I119L/I121R/I166T/I218V/L180W/L300P/L318F/N151K/N90K/P208A/P217A/Q67R/Q86G/Q94H/R138H/R169H/T345S); test: HLA class I binding assay, purified HLA-A*0202; conditions: Table XXII, binding affinity
# HLA-A*0203 = HLA-A*0203 (Homo sapiens, UniProt P04439, A173T/D140Y/D185E/D98H/E277Q/G131W/G231S/I119V/I121R/I166T/I218V/L180W/L300P/L318F/N151K/N90K/P208A/P217A/Q86G/Q94H/R138H/R169H/T345S); test: HLA class I binding assay, purified HLA-A*0203; conditions: Table XXII, binding affinity
# HLA-DRB1*0401 = HLA-DRB1*0401 (Homo sapiens, UniProt P01903+P01911, A100K/A169T/F76Y/I96L/K127E/L162R/M171V/N62H/P40V/Q125Y/R42H/S133A/S149N/S66Y/V115G/V209L/W38E); test: HLA class II binding assay, DRB1*0401 (DR4w4)
# HLA-A*3101 = HLA-A*3101 (Homo sapiens, UniProt P04439, A270S/D185E/E176V/E277Q/F33T/G231S/G80R/H175R/I121M/I218V/I322F/K168Q/L300P/L318F/M331R/P217A/Q94H/R138Q/T323A/T345S/T97I/V358M); test: HLA class I binding assay, purified HLA-A*3101; conditions: Table XXIII, binding affinity
# HLA-A*3301 = HLA-A*3301 (Homo sapiens, UniProt P04439, A270S/D185E/E176V/E277Q/E87N/F33T/G231S/H175R/I121M/I218V/I322F/K168Q/K210R/L300P/L318F/M331R/P217A/Q86R/Q94H/R138Q/T323A/T345S/T97I/V358M/Y195H); test: HLA class I binding assay, purified HLA-A*3301; conditions: Table XXIII, binding affinity
# HLA-A*6801 = HLA-A*6801 (Homo sapiens, UniProt P04439, A269V/D185E/E176V/E277Q/E87N/F33Y/G231S/I121M/I166T/I218V/L180W/L300P/L318F/N151K/P208A/P217A/Q86R/R169H/T345S); test: HLA class I binding assay, purified HLA-A*6801; conditions: Table XXIII, binding affinity
# HLA-A*1101 = HLA-A*1101 (Homo sapiens, UniProt P04439, A114D/D185E/E176A/F33Y/L180Q/S129P/T187R); test: HLA class I binding assay, purified HLA-A*1101; conditions: Table XXIII, binding affinity
# HLA-A*0206 = HLA-A*0206 (Homo sapiens, UniProt P04439, D140Y/D185E/D98H/E176V/E277Q/F33Y/G131W/G231S/I119V/I121R/I166T/I218V/L300P/L318F/N151K/N90K/P208A/P217A/Q86G/Q94H/R138H/R169H/T345S); test: HLA class I binding assay, purified HLA-A*0206; conditions: Table XXII, binding affinity
# HLA-A*0201 = HLA-A*0201 (Homo sapiens, UniProt P04439, D140Y/D185E/D98H/E176V/E277Q/G131W/G231S/I119V/I121R/I166T/I218V/L300P/L318F/N151K/N90K/P208A/P217A/Q86G/Q94H/R138H/R169H/T345S); test: HLA class I binding assay, purified HLA-A*0201; conditions: Table XXII, binding affinity
# [1] = HLA Class II motif and supermotif-bearing epitopes
molecule,measurement,setting,value
CC[C@H](C)[C@H](NC(=O)[C@H](CC(C)C)NC(=O)[C@@H](N)CCC(N)=O)C(=O)NCC(=O)N[C@@H](Cc1ccc(O)cc1)C(=O)N[C@H](C(=O)N[C@H](C(=O)NCC(=O)N[C@H](C(=O)O)C(C)C)[C@@H](C)CC)C(C)C [CEA.78L2V9],IC50,HLA-A*6802,2.3 nM
same,IC50,HLA-A*0202,5.9 nM
same,IC50,HLA-A*0203,2.3 nM
CC[C@H](C)[C@H](NC(=O)[C@H](CC(N)=O)NC(=O)[C@@H](N)CCC(N)=O)C(=O)N[C@H](C(=O)N[C@@H](CCC(N)=O)C(=O)N[C@@H](CC(N)=O)C(=O)N[C@@H](CC(=O)O)C(=O)N[C@H](C(=O)NCC(=O)N[C@@H](Cc1ccccc1)C(=O)N[C@@H](Cc1ccc(O)cc1)C(=O)N[C@H](C(=O)N[C@@H](CC(C)C)C(=O)N[C@@H](Cc1c[nH]cn1)C(=O)N[C@H](C(=O)O)C(C)C)[C@@H](C)O)[C@@H](C)O)[C@@H](C)CC [CEA.110],IC50,HLA-DRB1*0401; [1],> 8180 nM
CC(C)C[C@H](NC(=O)[C@H](CCCNC(=N)N)NC(=O)[C@@H]1CCCN1C(=O)[C@H](CO)NC(=O)[C@@H](NC(=O)[C@@H]1CCCN1C(=O)[C@H](CC(C)C)NC(=O)[C@H](CO)NC(=O)[C@H](CCC(N)=O)NC(=O)[C@H](CC(N)=O)NC(=O)[C@H](CC(N)=O)NC(=O)[C@@H](NC(=O)[C@H](Cc1c[nH]c2ccccc12)NC(=O)[C@H](Cc1c[nH]c2ccccc12)NC(=O)[C@@H](N)CC(C)C)C(C)C)C(C)C)C(=O)O [CEA.177],IC50,"HLA-DRB1*0401; DR supertype primary binding, read-out: DR4w4 binding affinity",1550 nM
CC(C)C[C@H](NC(=O)[C@H](CC(C)C)NC(=O)[C@@H](NC(=O)[C@H](CC(C)C)NC(=O)[C@@H](NC(=O)[C@H](CCCNC(=N)N)NC(=O)[C@H](CC(N)=O)NC(=O)[C@H](CC(=O)O)NC(=O)[C@H](CC(N)=O)NC(=O)[C@H](CO)NC(=O)[C@H](CC(C)C)NC(=O)[C@H](CCC(N)=O)NC(=O)[C@H](CC(C)C)NC(=O)[C@@H](N)CCCNC(=N)N)[C@@H](C)O)[C@@H](C)O)C(=O)N[C@@H](CO)C(=O)O [CEA.368],IC50,HLA-DRB1*0401; [1],> 8180 nM
CC(C)C[C@H](NC(=O)[C@H](CC(C)C)NC(=O)[C@@H](NC(=O)[C@H](CC(C)C)NC(=O)[C@@H](NC(=O)[C@@H](N)CCCNC(=N)N)C(C)C)[C@@H](C)O)C(=O)N[C@@H](CO)C(=O)N[C@H](C(=O)N[C@H](C(=O)N[C@@H](CCCCN)C(=O)O)[C@@H](C)O)C(C)C [CEA.376.V2K10],IC50,HLA-A*3101,164 nM
same,IC50,HLA-A*3301,> 10000 nM
same,IC50,HLA-A*6801,5710 nM
CC(C)[C@H](NC(=O)[C@@H](N)[C@@H](C)O)C(=O)N[C@@H](CO)C(=O)N1CCC[C@H]1C(=O)N[C@@H](CO)C(=O)N[C@@H](Cc1ccc(O)cc1)C(=O)N[C@H](C(=O)N[C@@H](Cc1ccc(O)cc1)C(=O)N[C@@H](Cc1ccc(O)cc1)C(=O)N[C@@H](CCCCN)C(=O)O)[C@@H](C)O [CEA.419.V2K10],IC50,HLA-A*3101,3670 nM
same,IC50,HLA-A*3301,> 10000 nM
same,IC50,HLA-A*1101,43 nM
same,IC50,HLA-A*6801,6.7 nM
CC[C@H](C)[C@H](N)C(=O)N[C@H](C(=O)N1CCC[C@H]1C(=O)N[C@@H](CO)C(=O)N[C@@H](Cc1ccc(O)cc1)C(=O)N[C@H](C(=O)N[C@@H](Cc1ccc(O)cc1)C(=O)N[C@@H](Cc1ccc(O)cc1)C(=O)N[C@@H](CCCCN)C(=O)O)[C@@H](C)O)C(C)C [CEA.420.V2K9],IC50,HLA-A*3101,720 nM
same,IC50,HLA-A*3301,4330 nM
same,IC50,HLA-A*6801,22 nM
CC(C)C[C@H](NC(=O)[C@@H](NC(=O)[C@@H](N)CCCNC(=N)N)C(C)C)C(=O)N[C@H](C(=O)N[C@@H](CC(C)C)C(=O)N[C@@H](Cc1ccccc1)C(=O)N[C@@H](CC(N)=O)C(=O)N[C@H](C(=O)N[C@H](C(=O)N[C@@H](CCCCN)C(=O)O)[C@@H](C)O)C(C)C)[C@@H](C)O [CEA.554.V42K10],IC50,HLA-A*3101,234 nM
same,IC50,HLA-A*3301,> 10000 nM
same,IC50,HLA-A*1101,32 nM
same,IC50,HLA-A*6801,2350 nM
CC[C@H](C)[C@H](NC(=O)CNC(=O)[C@H](CS)NC(=O)[C@H](CC(C)C)NC(=O)[C@@H](N)Cc1ccc(O)cc1)C(=O)N[C@@H](CCC(N)=O)C(=O)N[C@@H](CC(N)=O)C(=O)N[C@@H](CO)C(=O)N[C@H](C(=O)O)C(C)C [CEA.569L2],IC50,HLA-A*6802,3480 nM
same,IC50,HLA-A*0202,24 nM
same,IC50,HLA-A*0206,31 nM
CC(C)C[C@H](NC(=O)[C@H](CC(N)=O)NC(=O)[C@H](CO)NC(=O)[C@@H](NC(=O)[C@@H](N)Cc1ccccc1)C(C)C)C(=O)N[C@@H](C)C(=O)N[C@H](C(=O)NCC(=O)N[C@@H](CCCCN)C(=O)O)[C@@H](C)O [CEA.656.K9],IC50,HLA-A*3101,> 10000 nM
same,IC50,HLA-A*3301,> 10000 nM
same,IC50,HLA-A*1101,207 nM
same,IC50,HLA-A*6801,5.3 nM
CC[C@H](C)[C@H](NC(=O)CNC(=O)[C@@H](NC(=O)[C@H](CC(C)C)NC(=O)[C@H](C)N)C(C)C)C(=O)N[C@@H](CCSC)C(=O)N[C@H](C(=O)NCC(=O)N[C@H](C(=O)O)C(C)C)[C@@H](C)CC [CEA.687L2],IC50,HLA-A*0201,10 nM
same,IC50,HLA-A*6802,102 nM
same,IC50,HLA-A*0202,63 nM
same,IC50,HLA-A*0206,100 nM
same,IC50,HLA-A*0203,31 nM
CC[C@H](C)[C@H](NC(=O)CN)C(=O)N[C@@H](CCSC)C(=O)N[C@H](C(=O)NCC(=O)N[C@H](C(=O)N[C@@H](CC(C)C)C(=O)N[C@H](C(=O)NCC(=O)N[C@H](C(=O)O)C(C)C)C(C)C)C(C)C)[C@@H](C)CC [CEA.690],IC50,HLA-A*0201,64 nM
same,IC50,HLA-A*6802,500 nM
same,IC50,HLA-A*0202,205 nM
same,IC50,HLA-A*0206,142 nM
same,IC50,HLA-A*0203,31 nM
CC[C@H](C)[C@H](N)C(=O)N[C@@H](CC(C)C)C(=O)N[C@H](C(=O)NCC(=O)N[C@H](C(=O)N[C@@H](CC(C)C)C(=O)N[C@H](C(=O)NCC(=O)N[C@H](C(=O)O)C(C)C)C(C)C)C(C)C)[C@@H](C)CC [CEA.691L2],IC50,HLA-A*0201,22 nM
same,IC50,HLA-A*6802,160 nM
same,IC50,HLA-A*0202,8 nM
same,IC50,HLA-A*0203,3.2 nM
TVSPLNTSYK [CEA.241.V2K10],IC50,HLA-A*3101,> 10000 nM
same,IC50,HLA-A*3301,> 10000 nM
same,IC50,HLA-A*1101,6 nM
same,IC50,HLA-A*6801,7.3 nM
